The results in this text go back to article PMC11874377, “Fungal-derived methyldeoxaphomins target Plasmodium falciparum segregation through the inhibition of PfActin1” (Proceedings of the National Academy of Sciences of the …, 2025).

Each structure is given as a SMILES string.

For test [1], the system named is Plasmodium falciparum Dd2-Pol δ. Briefly: In vitro evolution of resistance, bulk culture populations. Type of test: cell-based. The note with it: after selection from 90 nM to 17 μM over 6.3 mo. As for the experimental part:
We next sought to identify the molecular target of NPDG-F using in vitro evolution in a hypermutator line Dd2-Pol δ. This line was created to facilitate faster resistance development through the modification of the catalytic residues in DNA polymerase δ via CRISPR-Cas9 ([13]). Three populations of parasites grown in parallel were exposed to increasing concentrations of NPDG-F from the initial 90 nM to a final concentration of 17 μM over 6.3 mo. Once resistance (~4.2-fold) was identified in the 3 bulk culture populations, parasite DNA was extracted, followed by library preparation and whole-genome sequencing. […]
The in vitro evolution was conducted using Plasmodium falciparum Dd2-Pol δ. […] Every 2 or 3 days, parasitemia was determined via Giemsa smear and reset to 2% (for a 3-day split, 1.6 X108 parasites) or 3% (for a 2-day split, 2.4 X108). […] Resistance development was monitored every 3 months through SYBR green I- based EC50 dose response assay as described above. […]
Parasite genomic DNA was extracted from the parent and the resistant lines using DNeasy Blood & Tissue Kit (Qiagen). […] The pooled libraries were sequenced on Illumina NovaSeq 6000 with S4 200 chemistry to generate paired end reads with 100bp in length.
Reads were aligned to Plasmodium falciparum reference genome 3D7 (PlasmoDB v13.0) using an in-house pipeline (Cowell & Winzeler, 2019). […]

In test [2] the test system is Dd2. Put plainly: Stage specific activity assay. Particulars: 5 × EC50. Type of test: cell-based, Plasmodium falciparum. As for the experimental part: To corroborate the findings identified through the in vitro evolution of resistance, the activity of NPDG-F was assessed in a stage-dependent manner in vitro. Because actin proteins are needed for chromosome separation, we anticipated that parasites treated with NPDG-F would arrest late in the cell cycle. The parasite strain Dd2 was first synchronized and treated in ring (~6 h post invasion, HPI), trophozoite (~18 HPI), early schizont (~30 HPI), or late schizont (~42 HPI). Cultures were then observed in each condition every 12 h until reinvasion occurred via Giemsa stain and flow cytometry. When added in early ring, NPDG-F treated cultures proceeded normally through the intraerythrocytic life cycle until late schizogony (Fig. 4A). […]
EC50s. […] Dose-response curves were then generated for the available conditions where EC50s could be determined. The fractional inhibitor concentration of both compounds was then determined as described (Fivelman et al., 2004) for the available points and graphed on a scale of 0-1 also using Graphpad Prism version 10.
Cytotoxicity was assessed using an MTS (3-(4,5-Dimethylthiazol-2-yl)-5-(3-carboxymethoxyphenyl)-2-(4-sulfophenyl)-2H-tetrazolium) absorbance assay with human HepG2 hepatoma cells. […] Following a 48-h incubation with compounds, MTS solution was added to wells and absorbance was read after 2-4 h on a Synergy Neo2 multimode reader (BioTek Winsooki, VT). […]

Take `C=C1C(C)C2C(Cc3ccccc3)NC(=O)C23C(=O)C=CC(O)C(O)C(C)CC(C)CC=CC3C1O` (stereo not drawn) [Methyldeoxaphomin NPDG-F]: the “resistance in the 3 bulk culture populations” value in test [1] is recorded as ~ 4.2 fold. Further, the “effect when added after 6 HPI” value in test [2] (18, 30 or 42 HPI) is listed as “persisted only in a minor population of schizonts”. In addition, the “effect when added in early ring” value in test [2] (~6 HPI, synchronous Dd2) is reported as “complete life cycle inhibition”.
